Measurements: patent publication US12370161B2, “Composition for treating atopy or pruritus comprising N-acetyl or N-acyl amino acid” (STEMDR INC., priority 2017, dated 2025)

Assays:
[1] = tested on: atopic dermatitis-induced Nc/Nga mouse; assay: SCORAD clinical skin score, DNFB-induced atopic dermatitis in Nc/Nga mouse; type: in vivo; set-up: key to Mouse 1 Erythema / Mouse 2 Eschar / Mouse 2 Dryness / Mouse 2 Abrasion / Mouse 1 Edema / Mouse 1 Eschar / Mouse 1 Dryness / Mouse 1 Abrasion / Mouse 2 Erythema / Mouse 2 Edema / Mouse 3 Erythema / Mouse 3 Edema / Mouse 3 Eschar / Mouse 3 Dryness / Mouse 3 Abrasion: 0 = no symptom, 1 = mild, 2 = moderate, 3 = severe; key to Mouse 1 Sum / Mean (of Sum, SCORAD) / Mouse 3 Sum: sum of individual symptom scores, each graded 0-3; conditions: for dermatitis-treating effect of L-, L/D- and D-form (FIG. 6): Nc/Nga atopic dermatitis model, 0.1%; for Mouse 1 Erythema: DNFB Nc/Nga (FIG. 8), 0.1% in PBS, 200 μL on back skin daily day 15-21; for Mouse 1 Erythema / Mouse 1 Abrasion / Mouse 1 Dryness / Mouse 1 Edema / Mouse 1 Eschar / Mouse 1 Lichenification / Mouse 2 Abrasion / Mouse 2 Dryness / Mouse 2 Edema / Mouse 2 Erythema / Mouse 2 Eschar / Mouse 2 Lichenification / Mouse 3 Abrasion / Mouse 3 Dryness / Mouse 3 Edema / Mouse 3 Erythema / Mouse 3 Eschar / Mouse 3 Lichenification: graded per Example 4; for Mouse 1 Abrasion / Mouse 1 Dryness / Mouse 1 Edema / Mouse 1 Eschar / Mouse 1 Lichenification / Mouse 1 Sum / Mouse 2 Abrasion / Mouse 2 Dryness / Mouse 2 Edema / Mouse 2 Erythema / Mouse 2 Eschar / Mouse 2 Lichenification / Mouse 2 Sum / Mouse 3 Abrasion / Mouse 3 Dryness / Mouse 3 Edema / Mouse 3 Erythema / Mouse 3 Eschar / Mouse 3 Lichenification / Mouse 3 Sum / Mean (of Sum, SCORAD): DNFB Nc/Nga, 0.1% topical day 15-21; for Mouse 1 Sum / Mouse 2 Sum / Mouse 3 Sum: sum of individual scores; for Mean (of Sum, SCORAD): mean of 3 mice
Protocol: In order to establish a model more similar to an atopy model than that of the Balb/c mice, atopy was induced in Nc/Nga mouse mice. Specifically, after inducing DNFB sensitization by applying 100 μL of 0.35% 2,4-dinitrofluorobenzene (DNFB) in acetone/olive oil (3:1) on the shaved back skin, dermatitis was induced by applying 100 μL of 0.15% DNFB for 4-20 days, every other day. Control mice were treated with a vehicle of the same volume (FIG. 1B).
After dissolving an N-acetyl or N-acylamino acid in phosphate-buffered saline to 0.1%, 200 μL of the solution was applied on the back skin of the mice every day, from day 22 until day 28 for the Balb/c atopic dermatitis model, and from day 15 until day 21 for the Nc/Nga atopic dermatitis model. When the N-acetyl or N-acylamino acid was treated together with DNFB, they were treated with 12-hour intervals in order to avoid direct reaction between the DNFB and the N-acetyl or N-acylamino acid. A non-treated group and a 2,4-dinitrofluorobenzene (DNFB) group were treated with phosphate-buffered saline of the same volume (FIGS. 1A-1B). As the N-acetylamino acid, products purchased from Sigma-Aldrich (USA), MP scientific (USA), TCI (Tokyo Chemical Industry, Japan), Santacruz (USA), etc. were used without purification.
The degree of skin soothing and the severity of atopic dermatitis were evaluated macroscopically according to the previously established SCORAD (SCORing Atopic Dermatitis) method (Oranje et al., 2007). The degree of symptoms such as edema, erythema, eschar, dryness, abrasion, lichenification, etc. was graded from 0 to 3 (0, no symptom; 1, mild; 2, moderate; 3, severe). The overall dermatitis score was determined from the sum of all individual scores (Table 1). The assessment was performed by an investigator who was blind to the grouping of the mice.
Skin-soothing effect and the severity of dermatitis were evaluated for the acyl derivatives of tryptophan synthesized in Example 9, the acyl derivative of alanine synthesized in Example 10 and N-palmitoylalanine (purchased from Santacruz (USA)) according to the method of Example 4 (Table 2)

[2] = tested on: pruritus caused by atopic contact dermatitis; assay: Pruritus inhibition test, pruritus induced with DNFB; type: in vivo, mouse; conditions: 0.1% in physiological saline applied once onto right ear; pruritus measured for 1 hour
Protocol: In order to investigate whether L-form, LID-form and D-form N-acetylalanine, N-acetylarginine, N-acetylthreonine and N-acetyltryptophan inhibit pruritus caused by atopic contact dermatitis, 20 μL of 0.1% 2,4-dinitrofluorobenzene (DNFB) solution and 0.1% N-acetylamino acid dissolved in physiological saline were applied once onto the right ear 10 minutes after the final treatment (day 27) with 2,4-dinitrofluorobenzene (DNFB) (Physiological saline was applied to a negative control group), and then pruritus was measured for 1 hour. FIG. 7 compares the pruritus-relieving effect of L-form N-acetylalanine, N-acetylthreonine, N-acetylarginine and N-acetyltryptophan with D/L-form and D-form N-acetylalanine and N-acetyltryptophan at 0.1% after the induction of pruritus with DNFB.

Row | Structure (SMILES) | Mouse 1 Erythema [1] | Mouse 1 Abrasion [1] | Mouse 1 Dryness [1] | Mouse 1 Edema [1] | Mouse 1 Eschar [1] | Mouse 1 Lichenification [1] | Mouse 1 Sum [1] | Mouse 2 Abrasion [1] | Mouse 2 Dryness [1] | Mouse 2 Edema [1] | Mouse 2 Erythema [1] | Mouse 2 Eschar [1] | Mouse 2 Lichenification [1] | Mouse 2 Sum [1] | Mouse 3 Abrasion [1] | Mouse 3 Dryness [1] | Mouse 3 Edema [1] | Mouse 3 Erythema [1] | Mouse 3 Eschar [1] | Mouse 3 Lichenification [1] | also measured
1 | CC(=O)N[C@@H](C)C(=O)O [D/L-form N-acetylalanine, N-acetylalanine, reference compound] |  |  |  |  |  |  |  |  |  |  |  |  |  |  |  |  |  |  |  |  | dermatitis-treating effect of L-, L/D- and D-form (FIG. 6) ([1]; listed as LID-form N-acetylalanine): no effect; pruritus-relieving effect (FIG. 7) [2]: little effect
2 | CC(=O)N[C@@H](Cc1c[nH]c2ccccc12)C(=O)O [D/L-form N-acetyltryptophan, N-acetyltryptophan, reference compound] |  |  |  |  |  |  |  |  |  |  |  |  |  |  |  |  |  |  |  |  | dermatitis-treating effect of L-, L/D- and D-form (FIG. 6) ([1]; listed as LID-form N-acetyltryptophan): no effect; pruritus-relieving effect (FIG. 7) [2]: little effect
3 | CCCCCCCCCCCCCCCC(=O)N[C@@H](C)C(=O)O [N-palmitoyl L-alanine, N-palmitoyl-L-alanine] | 1 | 1 | 1 | 2 | 1 | 1 | 7 | 1 | 1 | 1 | 2 | 1 | 1 | 7 | 2 | 2 | 1 | 2 | 1 | 1 | Mouse 3 Sum [1]: 9; Mean (of Sum, SCORAD) [1]: 6.7
4 | CCCCCCCCCCCCCCCC(=O)N[C@@H](Cc1c[nH]c2ccccc12)C(=O)O [N-palmitoyl-L-tryptophan] | 1 | 1 | 1 | 2 | 1 | 2 | 6 | 2 | 2 | 1 | 2 | 2 | 1 | 10 | 1 | 2 | 2 | 2 | 1 | 2 | Mouse 3 Sum [1]: 10; Mean (of Sum, SCORAD) [1]: 8.7
5 | CCCCC(=O)N[C@@H](Cc1c[nH]c2ccccc12)C(=O)O [N-pentanoyl L-tryptophan, N-pentanoyl-L-tryptophan] | 2 | 1 | 2 | 2 | 2 | 2 | 11 | 1 | 2 | 2 | 2 | 1 | 2 | 10 | 2 | 1 | 2 | 2 | 2 | 1 | Mouse 3 Sum [1]: 10; Mean (of Sum, SCORAD) [1]: 10.3
6 | CCC(=O)N[C@@H](Cc1c[nH]c2ccccc12)C(=O)O [N-propionyl L-tryptophan, N-propionyl-L-tryptophan] | 2 | 2 | 2 | 2 | 2 | 2 | 12 | 2 | 3 | 2 | 2 | 2 | 2 | 13 | 2 | 1 | 1 | 2 | 2 | 1 | Mouse 3 Sum [1]: 9; Mean (of Sum, SCORAD) [1]: 11.3
7 | CCCCCCCCCCCCCCCCCC(=O)N[C@@H](Cc1c[nH]c2ccccc12)C(=O)O [N-stearyl-L-tryptophan, N-stearoyl-L-tryptophan] | 2 | 2 | 2 | 2 | 2 | 2 | 12 | 2 | 2 | 2 | 2 | 1 | 1 | 10 | 2 | 1 | 2 | 2 | 2 | 2 | Mouse 3 Sum [1]: 11; Mean (of Sum, SCORAD) [1]: 11
8 | CCCCCCCCCCC(=O)N[C@@H](Cc1c[nH]c2ccccc12)C(=O)O [N-undecanoyl L-tryptophan, N-undecanoyl-L-tryptophan] | 1 | 2 | 1 | 2 | 1 | 2 | 9 | 2 | 1 | 1 | 2 | 2 | 2 | 10 | 1 | 1 | 2 | 1 | 2 | 2 | Mouse 3 Sum [1]: 9; Mean (of Sum, SCORAD) [1]: 9.3
